# According to patent US20250195490A1, “ALPHA-METHYLENE AND AMINOMETHYL LACTONES AND LACTAMS FOR TREATMENT OF CLOSTRIDIOIDES DIFFICILE INFECTION (CDI)” (Purdue Research Foundation, priority 2022, published 2025):
# Experiments:
# [1] = tested on: Caco-2 cells; assay: In vitro cytotoxicity (MTS assay) against Caco-2 cells; settings: tested at 32, 64 and 128 μg/mL, two hours
# Experimental: Percent viable mammalian cells (measured as average absorbance ratio (test agent relative to DMSO) for cytotoxicity analysis of the compounds (tested in triplicate) at 32, 64 and 128 μg/mL against Caco-2 cells using the MTS 3-(4,5-dimethylthiazol-2-yl)-5-(3-carboxymethoxyphenyl)-2-(4-sulfophenyl)-2H-tetrazolium) assay. Dimethyl sulfoxide (DMSO) was used as a negative control to determine a baseline measurement for the cytotoxic impact of each compound. The absorbance values represent an average of a minimum of three samples analyzed for each compound. Error bars represent standard deviation values for the absorbance values. A two-way ANOVA, with post hoc Dunnet's multiple comparisons test, determined statistical difference (denoted by the asterisk, *) (P<0.05) between the values obtained for each compound and DMSO (negative control, used as solvent for the compounds). […]
# Method: Compounds were assayed (at concentrations of 32, 64 and 128 μg/mL) against a human colorectal (Caco-2) cell line to determine the potential toxic effect to mammalian cells in vitro. […] Absorbance readings (at OD490) were taken using a kinetic microplate reader (Molecular Devices, Sunnyvale, CA, USA). The quantity of viable cells after treatment with each compound was expressed as a percentage of the viability of DMSO-treated control cells (average of triplicate wells±standard deviation). […]
# [2] = In vivo safety profile and toxicity (maximum tolerated dose) in mice
# Experimental: Aminomethyllactone 27 was evaluated for any possible toxicity at oral doses higher than the anticipated dose that will be used for antimicrobial efficacy. The maximum tolerated dose (MTD) in mice was calculated and was expected to be several folds higher than therapeutic dose. The MTD is a dose that produces neither mortality nor more than a 10% decrement in body weight nor clinical signs of toxicity or a significant change in renal and/or hepatic function in the survivors. Having shown that 10 mg/kg in mice is not toxic in our initial mouse model studies, 10, 25, 50, 100, 200, 400 mg/kg doses of 27 were chosen, each dose was given one time to one mouse, and the mice were observed daily for 14 days for body weight gain, clinical signs of abnormality, and renal and hepatic function.
# At the end of the study, all animals appeared to be healthy and have good body weight. They were then euthanized, and the major organ (heart, liver, lung, kidney, spleen, and intestines) tissues were harvested for histological examination of toxicity. The evaluator was blinded to the treatment status of each mouse at the time of examination. […] Overall, 27 appears to be non-toxic to mice.
Structure (SMILES),concentration up to which non-toxic to Caco-2 cells [1] [µg/mL],toxicity in initial mouse model studies ([2]; 10 mg/kg in mice),"histological examination of major organ tissues ([2]; heart, liver, lung, kidney, spleen, intestines, end of 14-day study)","toxicity to mice ([2]; single oral doses 10, 25, 50, 100, 200, 400 mg/kg, observed 14 days)"
COc1cc(C2OC(=O)C(CN3CCCCC3)C2c2ccccc2Br)ccc1OCc1ccccc1 (racemic) [Compound 27],128,not toxic,within normal histologic limits,non-toxic
C=C1C(=O)O[C@H](c2ccccc2O)[C@@H]1c1cccc(C#N)c1 (racemic) [Compound 50],32,,,
